These results are taken from BindingDB's records for doi:10.1016/s0960-894x(03)00789-3 (Wyeth Research, 2003).

The term IC50 denotes the concentration needed to halve the response being measured. A high value points to a need for much substance.

The target of the assay is Human cytomegalovirus protease (assemblin, UL80). As to the kind of experiment: In vitro inhibitory activity against HCMV (human cytomegalovirus) protease using scintillation proximity assay. In general terms: Scintillation proximity formats need no separation of bound from free tracer.
`Cc1nc2nnc(-c3ccc([N+](=O)[O-])cc3)nn2c(=O)c1C` [7,8-Dimethyl-3-(4-nitro-phenyl)-pyrimido[1,2-b][1,2,4,5]tetrazin-6-one]: the concentration for half-maximal inhibition (IC50) stood at 1700 nM. Consider `Cc1nc2nnc(C(c3ccccc3)c3ccccc3)nn2c(=O)c1C` [3-Benzhydryl-7,8-dimethyl-pyrimido[1,2-b][1,2,4,5]tetrazin-6-one], for which the IC50 stood at 1700 nM. For `Cc1nnc2nc(C)c(C)c(=O)n2n1` [3,7,8-Trimethyl-pyrimido[1,2-b][1,2,4,5]tetrazin-6-one], the IC50 was 300 nM. With `Cc1nc2nncnn2c(=O)c1C` [7,8-Dimethyl-pyrimido[1,2-b][1,2,4,5]tetrazin-6-one], the IC50 came to 100 nM. `Cc1nc2nnc(-c3ccccc3)nn2c(=O)c1C` [7,8-Dimethyl-3-phenyl-pyrimido[1,2-b][1,2,4,5]tetrazin-6-one] came in with an IC50 of 400 nM. Take `Cc1ccc(-c2nnc3nc(C)c(C)c(=O)n3n2)cc1` [7,8-Dimethyl-3-p-tolyl-pyrimido[1,2-b][1,2,4,5]tetrazin-6-one]: the midpoint of inhibition, the IC50, lay at 300 nM. `Cc1nc2nnc(C(C)(C)C)nn2c(=O)c1C` [3-tert-Butyl-7,8-dimethyl-pyrimido[1,2-b][1,2,4,5]tetrazin-6-one] had an IC50 of 600 nM. In the case of `COc1ccc(-c2nnc3nc(C)c(C)c(=O)n3n2)cc1` [3-(4-Methoxy-phenyl)-7,8-dimethyl-pyrimido[1,2-b][1,2,4,5]tetrazin-6-one], the IC50 turned out to be 500 nM.
